Laboratory results taken from the supplement of paper PMC10307832.

Key:
Assay in all cases: relative viability (nuclei count vs DMSO), 5 days (fraction); higher = more cells survive
[1] = compound: O=c1[nH]cc(F)c(=O)[nH]1 [5-Fluorouracil] + N=C(N)NC(=N)NCCc1ccccc1 [Phenformin] (partner 250 µM)
Method in brief: (§1)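 Lung cancer cell lines, seeded in 1536-well plates, were treated the following day by pin tool with a single drug or with five library-drug doses (not always all listed) in √10 steps on top of a fixed anchor-drug dose. Cells were fixed and nuclei stained in one step after 5 days, and nuclei were counted. Relative viability is the nuclei count for treated wells divided by that for vehicle wells, reported as medians of duplicate plates.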

[2] = compound: O=c1[nH]cc(F)c(=O)[nH]1 [5-Fluorouracil] + CC1(C)CCC(c2ccc(Cl)cc2)=C(CN2CCN(c3ccc(C(=O)NS(=O)(=O)c4ccc(N[C@H](CCN5CCOCC5)CSc5ccccc5)c(S(=O)(=O)C(F)(F)F)c4)cc3)CC2)C1 [Navitoclax] (partner 0.5 µM)
Method in brief: as §1

[3] = compound: O=c1[nH]cc(F)c(=O)[nH]1 [5-Fluorouracil] + O=C(c1cc(Cc2n[nH]c(=O)c3ccccc23)ccc1F)N1CCN(C(=O)C2CC2)CC1 [Olaparib] (partner 8 µM)
Method in brief: as §1

[4] = compound: CC1=C(CC(=O)O)c2cc(F)ccc2/C1=C\c1ccc([S+](C)[O-])cc1 [Sulindac] + Nc1ncn([C@H]2C[C@H](O)[C@@H](CO)O2)c(=O)n1 [Decitabine] (partner 2 µM)
Method in brief: as §1

[5] = compound: O=c1[nH]cc(F)c(=O)[nH]1 [5-Fluorouracil] + COc1cccc2cc(-c3nc([C@H]4CC[C@H](C(=O)O)CC4)n4ncnc(N)c34)[nH]c12 [OSI-027] (partner 0.5 µM)
Method in brief: as §1

With UMC-11 the relative viability ([1]; first compound 0.02 µM) was 0.368, the relative viability ([1]; first compound 0.2 µM) was 0.308 and the relative viability ([1]; first compound 0.6325 µM) was 0.326. The relative viability ([1]; first compound 2 µM) was 0.339, the relative viability ([2]; first compound 0.02 µM) was 0.386 and the relative viability ([2]; first compound 0.2 µM) was 0.322. It also gave a relative viability ([2]; first compound 0.6325 µM) of 0.286, a relative viability ([2]; first compound 2 µM) of 0.241 and a relative viability ([3]; first compound 0.02 µM) of 0.409. The relative viability ([3]; first compound 0.2 µM) was 0.37, the relative viability ([3]; first compound 0.6325 µM) was 0.334 and the relative viability ([4]; first compound 0.08 µM) was 0.595. For the same cell line, the relative viability ([4]; first compound 0.253 µM) was 0.627, the relative viability ([4]; first compound 0.8 µM) was 0.535 and the relative viability ([4]; first compound 2.53 µM) was 0.584. It also gave a relative viability ([4]; first compound 8 µM) of 0.65, a relative viability ([5]; first compound 0.02 µM) of 0.445 and a relative viability ([5]; first compound 0.2 µM) of 0.477. For the same cell line, the relative viability ([5]; first compound 0.6325 µM) was 0.406 and the relative viability ([5]; first compound 2 µM) was 0.372.
